According to ChEMBL document CHEMBL5344420, “Flexibility in the bridge of chalcone derivatives is important for the inhibition of cellular growth” (Bioorg Med Chem Lett, 2023):
pIC50: −log10 of the molar value.

Tested on: A549
Experiment: Antiproliferative activity against human A549 cells assessed as cell growth inhibition measured after 48 hrs by CellTiter Aqueous One Solution MTS assay
Assay type: functional, cell-based
Settings: A549, 48 h

Compound | pIC50
O=C1/C(=C/c2ccccc2)CCc2ccccc21 | < 4.52
O=C1/C(=C/c2ccc(F)cc2)CCc2ccccc21 | < 4.52
Cc1ccc(/C=C2\CCc3ccccc3C2=O)cc1 | < 4.52
O=C1/C(=C/c2ccc(F)cc2)Cc2ccccc21 | < 4.52
COc1ccc(/C=C2\Cc3ccccc3C2=O)cc1 | < 4.52
O=C1/C(=C/c2ccc(OC(F)(F)F)cc2)Cc2ccccc21 | < 4.52
O=C1/C(=C/c2ccc(O)cc2)Cc2ccccc21 | < 4.52
O=C1/C(=C/c2ccc(OC(F)(F)F)cc2)CCc2ccccc21 | < 4.52

Results, then the molecule that gave them:

pIC50 | Compound
< 4.52 | O=C1/C(=C/c2ccc(O)cc2)CCc2ccccc21
< 4.52 | COc1ccc(/C=C2\CCc3ccccc3C2=O)cc1
< 4.52 | Cc1ccc(/C=C2\Cc3ccccc3C2=O)cc1
< 4.52 | O=C1/C(=C/c2ccccc2)Cc2ccccc21
4.77 | Cc1ccc(/C=C/C(=O)c2ccccc2)cc1
5.27 | O=C(/C=C/c1ccc(OC(F)(F)F)cc1)c1ccccc1
4.58 | O=C(/C=C/c1ccc(O)cc1)c1ccccc1 [4-HYDROXYCHALCONE]
5.28 | COc1ccc(/C=C/C(=O)c2ccccc2)cc1 [4-METHOXY CHALCONE]
4.91 | O=C(/C=C/c1ccccc1)c1ccccc1 [CHALCONE]
